Experimental data published in patent US4971975A (priority 1987, dated 1990).
pIC50: −log10 of the molar value. Counter-ions that a name gives are not always drawn. Like-named read-outs stand apart in the source and are kept apart here.

How the values were obtained:
muscarinic receptors [1] = format: binding, Hooded Lister rats; conditions: displacement of antagonist 3H-QNB (0.27 nM), rat cerebral cortex membranes, 37° C., 30 min
muscarinic receptors [2] = test: Radio ligand binding: displacement of the muscarinic agonist 3H-OXO-M from rat cerebral cortex membranes; set-up: species or system Hooded Lister rats; conditions: displacement of agonist 3H-OXO-M (2 nM), 2 mM magnesium chloride, 37° C., 30 min

| SMILES | pIC50 (muscarinic receptors [1]) | pIC50 (muscarinic receptors [2]) |
| --- | --- | --- |
| Cc1nnc(C23CCCN(CC2)C3)o1 (centres unmarked) [Compound E13, 5-(2-Methyl-1,3,4-oxadiazol-5-yl)-1-azabicyclo3.2.1]octane oxalate salt] | 5.03 | 7.41 |
| Cc1noc(C23CCCN(CC2)C3)n1 (centres unmarked) [Compound E10, 5-(3-Methyl-1,2,4-oxadiazol-5-yl)-1-azabicyclo[3.2.1]octane oxalate salt] | 5.40 | 7.77 |
| COC(=O)C12CCCN(CC1)C2 (centres unmarked) [Compound E3, Methyl 1-azabicyclo[3.2.1]oct-5-ylcarboxylate oxalate salt] | 5.17 | 7.85 |
| COC(=O)C12CCN(CC1)C2 [Compound E6, Methyl 1-azabicyclo[2.2.1]hept-4-ylcarboxylate oxalate salt] | 4.54 | 7.38 |
| c1cc(C23CCCN(CC2)C3)on1 (centres unmarked) [Compound E15, 5-(1,2-Oxazol-5-yl)-1-azabicyclo[3.2.1]octane oxalate salt] | 5.11 | 6.89 |
| c1coc(C23CCCN(CC2)C3)c1 (centres unmarked) [Compound E21, 5-(Fur-2-yl)-1-azabicyclo[3.2.1]octane hydrochloride salt] | 5.42 | 7.47 |
| Cc1noc(C23CCN(CC2)C3)n1 [Compound E11, 4-(3-Methyl-1,2,4-oxadiazol-5-yl)-1-azabicyclo[2.2.1]-heptane oxalate salt] | 4.85 | 7.03 |
| Cc1nnc(C23CCN(CC2)C3)o1 [Compound E17, 4-(2-Methyl-1,3,4-oxadiazol-5-yl)-1-azabicyclo[2.2.1]heptane oxalate salt] | 4.32 | 6.64 |
| c1coc(C23CCCN(CC2)C3)n1 (centres unmarked) [Compound E12, 5-(1,3-Oxazol-2-yl)-1-azabicyclo[3.2.1]octane oxalate salt] | 4.82 | 6.84 |
| c1nnc(C23CCCN(CC2)C3)o1 (centres unmarked) [Compound E14, 5-(1,3,4-Oxadiazol-2-yl)-1-azabicyclo[3.2.1]octane oxalate salt] | 5.05 | 6.80 |
